Laboratory results: ChEMBL document CHEMBL5233278, “Recent Advances in the Medicinal Chemistry of Farnesoid X Receptor” (J Med Chem, 2021)

What was measured:
[1] = biological target: T1, Peroxisome proliferator-activated receptor delta (Homo sapiens, UniProt Q03181); experiment: Agonist activity at human PPARdelta expressed in HEK293T cells incubated for 12 to 14 hrs by Dual-Glo luciferase assay; assay type: cell-based
T1 sequence (Q03181 whole entry): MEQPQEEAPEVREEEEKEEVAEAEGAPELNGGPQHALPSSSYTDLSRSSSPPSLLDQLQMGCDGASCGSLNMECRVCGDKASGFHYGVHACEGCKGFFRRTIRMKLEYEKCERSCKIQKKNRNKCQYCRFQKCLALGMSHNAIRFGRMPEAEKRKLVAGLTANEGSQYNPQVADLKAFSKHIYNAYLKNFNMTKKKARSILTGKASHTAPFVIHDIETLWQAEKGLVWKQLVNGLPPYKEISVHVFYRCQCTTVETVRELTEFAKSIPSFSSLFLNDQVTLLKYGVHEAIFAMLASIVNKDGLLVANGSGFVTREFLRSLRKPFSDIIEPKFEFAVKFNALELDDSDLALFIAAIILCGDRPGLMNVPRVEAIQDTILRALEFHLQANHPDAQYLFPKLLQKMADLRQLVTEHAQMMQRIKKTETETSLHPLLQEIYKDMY

Bile acid receptor = biological target: T2, Bile acid receptor (Homo sapiens, UniProt Q96RI1); experiment: Agonist activity at FXR in human HeLa cells incubated for 24 hrs by Dual-Glo luciferase assay; assay type: cell-based
T2 sequence (Q96RI1 whole entry): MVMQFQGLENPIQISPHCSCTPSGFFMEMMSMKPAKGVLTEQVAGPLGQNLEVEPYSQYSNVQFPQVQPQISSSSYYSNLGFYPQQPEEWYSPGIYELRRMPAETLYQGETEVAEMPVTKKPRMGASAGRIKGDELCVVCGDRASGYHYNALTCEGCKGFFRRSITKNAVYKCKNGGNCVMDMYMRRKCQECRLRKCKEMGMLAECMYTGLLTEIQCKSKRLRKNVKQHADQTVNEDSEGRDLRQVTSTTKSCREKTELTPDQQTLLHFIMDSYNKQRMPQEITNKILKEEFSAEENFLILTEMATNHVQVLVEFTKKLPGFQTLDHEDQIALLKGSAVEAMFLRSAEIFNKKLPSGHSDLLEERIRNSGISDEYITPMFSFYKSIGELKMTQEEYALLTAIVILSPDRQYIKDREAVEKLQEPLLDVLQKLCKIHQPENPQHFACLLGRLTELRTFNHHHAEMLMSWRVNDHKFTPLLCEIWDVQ

CC(C)c1onc(-c2c(Cl)cccc2Cl)c1COc1ccc(CNc2ccc(CC(=O)O)cc2)c(Cl)c1
EC50 [1]: 1.5 µM | EC50 (Bile acid receptor): 0.94 µM
